For experiment [1], the target named is T1, EGFR (Homo sapiens, UniProt P00533).
T1 construct: Add 7 ug A431 cell lysate per well (EGFR source); endogenous in cells; host or cells: A431
The experiment can be described thus: EGFR ELISA assay (in vitro kinase activity, EGFR captured from A431 cell lysate). The experiment is classed as biochemical. Details: concentration or dose not given beside the values. A digest of the protocol: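 EGFR from A431 lysate was captured on plates coated with anti-EGFR antibody. Compounds were added 30 min before a 5 min phosphorylation with 3 µM ATP/5 mM MnCl2, which was stopped with 20 mM EDTA. Phosphotyrosine was detected with rabbit anti-phosphotyrosine, then a peroxidase-conjugated secondary and ABTS/H2O2, read at 410 nm.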

Experiment [2] has as its target PDGF-R (Homo sapiens, UniProt P09619). Nature of the experiment: PDGF-R ELISA. It is filed as cell-based. The text has this: A PDGF-R ELISA is described in International Patent Publication No. WO 96/40116, published December 19, 1996 by Tang et al.
The subject of experiment [3] is MET. Nature of the experiment: MET biochemical kinase assay. Set-up: species or system human; concentration or dose not given beside the values. The essentials: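 Capture ELISA: anti-rabbit Fc coat, rabbit anti-MET cytoplasmic domain pAb, lysate MET captured, washed. Compound + kinase buffer (ATP, divalent metals). Readout anti-pTyr-HRP/TMB, colorimetric.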

This is an account of results in patent publication EP1247803A2, “Indolinone compounds suitable for modulation of protein kinases” (Sugen, Inc., priority 1996, dated 1998).

PDGF-R, sequence (P09619 33-1106, species assumed): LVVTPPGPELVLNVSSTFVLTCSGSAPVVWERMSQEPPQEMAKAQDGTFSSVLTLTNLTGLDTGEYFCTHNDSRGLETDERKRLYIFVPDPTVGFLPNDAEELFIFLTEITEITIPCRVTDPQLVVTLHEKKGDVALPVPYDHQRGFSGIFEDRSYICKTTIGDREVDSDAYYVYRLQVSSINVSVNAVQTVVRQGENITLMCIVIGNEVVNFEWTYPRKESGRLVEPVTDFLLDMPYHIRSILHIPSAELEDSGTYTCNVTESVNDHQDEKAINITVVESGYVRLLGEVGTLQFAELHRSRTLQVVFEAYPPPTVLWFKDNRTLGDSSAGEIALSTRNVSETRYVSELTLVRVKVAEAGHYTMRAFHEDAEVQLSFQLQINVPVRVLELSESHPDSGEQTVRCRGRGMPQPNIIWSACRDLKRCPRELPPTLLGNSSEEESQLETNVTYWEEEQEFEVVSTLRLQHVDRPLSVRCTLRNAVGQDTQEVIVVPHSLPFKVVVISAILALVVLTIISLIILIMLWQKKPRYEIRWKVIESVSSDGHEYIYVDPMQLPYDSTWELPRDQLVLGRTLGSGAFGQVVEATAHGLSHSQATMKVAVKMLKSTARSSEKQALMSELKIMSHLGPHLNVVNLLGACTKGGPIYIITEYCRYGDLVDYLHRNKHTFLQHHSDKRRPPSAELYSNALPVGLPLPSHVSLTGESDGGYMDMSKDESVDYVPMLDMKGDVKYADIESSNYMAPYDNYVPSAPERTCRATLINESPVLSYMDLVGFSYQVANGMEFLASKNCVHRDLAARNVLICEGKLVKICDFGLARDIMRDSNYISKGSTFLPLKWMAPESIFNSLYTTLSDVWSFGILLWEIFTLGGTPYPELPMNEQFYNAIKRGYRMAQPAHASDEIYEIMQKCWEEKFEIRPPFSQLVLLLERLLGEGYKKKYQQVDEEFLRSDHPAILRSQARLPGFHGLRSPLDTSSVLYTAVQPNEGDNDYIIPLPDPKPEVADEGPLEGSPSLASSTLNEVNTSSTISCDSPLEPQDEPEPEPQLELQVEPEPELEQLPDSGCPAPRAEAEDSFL
T1 sequence (P00533 25-1210): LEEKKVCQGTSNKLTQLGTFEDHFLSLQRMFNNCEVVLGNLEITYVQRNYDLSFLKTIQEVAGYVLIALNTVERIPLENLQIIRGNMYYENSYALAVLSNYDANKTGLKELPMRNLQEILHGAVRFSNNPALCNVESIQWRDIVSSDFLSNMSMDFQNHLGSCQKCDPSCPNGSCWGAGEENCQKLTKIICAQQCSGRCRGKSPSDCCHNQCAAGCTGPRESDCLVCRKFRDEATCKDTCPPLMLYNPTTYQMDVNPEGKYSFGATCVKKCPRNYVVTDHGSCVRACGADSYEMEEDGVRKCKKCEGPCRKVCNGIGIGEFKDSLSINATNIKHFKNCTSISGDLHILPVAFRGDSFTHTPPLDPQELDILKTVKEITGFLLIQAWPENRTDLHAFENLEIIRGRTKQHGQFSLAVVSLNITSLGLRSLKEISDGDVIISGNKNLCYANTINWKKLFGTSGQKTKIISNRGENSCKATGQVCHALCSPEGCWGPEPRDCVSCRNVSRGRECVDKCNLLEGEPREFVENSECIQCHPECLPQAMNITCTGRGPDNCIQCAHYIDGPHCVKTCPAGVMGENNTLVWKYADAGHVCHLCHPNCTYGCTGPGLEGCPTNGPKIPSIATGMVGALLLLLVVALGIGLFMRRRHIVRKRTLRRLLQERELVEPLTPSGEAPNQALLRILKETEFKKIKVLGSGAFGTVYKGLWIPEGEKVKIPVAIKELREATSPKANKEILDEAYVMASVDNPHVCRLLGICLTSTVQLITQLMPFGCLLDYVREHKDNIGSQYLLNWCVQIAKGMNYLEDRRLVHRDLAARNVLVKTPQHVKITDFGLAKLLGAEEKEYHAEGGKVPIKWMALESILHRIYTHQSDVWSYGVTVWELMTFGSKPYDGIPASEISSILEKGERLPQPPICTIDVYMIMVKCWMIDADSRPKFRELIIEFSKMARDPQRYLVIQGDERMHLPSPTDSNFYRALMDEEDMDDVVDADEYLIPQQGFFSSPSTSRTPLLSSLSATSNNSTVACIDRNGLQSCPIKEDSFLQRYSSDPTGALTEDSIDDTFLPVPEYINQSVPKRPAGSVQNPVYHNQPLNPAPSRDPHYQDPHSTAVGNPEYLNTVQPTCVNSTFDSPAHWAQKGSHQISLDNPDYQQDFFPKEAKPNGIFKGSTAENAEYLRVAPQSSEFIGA

As to `O=C1Nc2c(Br)cc(Br)cc2C1=Cc1ccccn1` [10729/A07], the “Biochem EGFR %Inhibition” value in experiment [1] stood at 49.0%. In addition, the “PDGF Kinase %Inhibition” value in experiment [2] is recorded as -36.7%. For the same compound, the “Met Kinase % Inhibition” value in experiment [3] is given as 51.1%.

Turning to `COc1ccc(C=C2C(=O)Nc3ccc(I)cc32)c2ccccc12` [10729/B03], the “Biochem EGFR %Inhibition” value in experiment [1] is listed as 38.2%. Moreover, in experiment [2], the “PDGF Kinase %Inhibition” value was -9.4%. Also, the “Met Kinase % Inhibition” value in experiment [3] came to 57.3%.

With `O=C(O)COc1ccccc1C=C1C(=O)Nc2ccc(S(=O)(=O)Nc3ccc(C(F)(F)F)cc3)cc21` [10728/E10], the “Biochem EGFR %Inhibition” value in experiment [1] is on record as -20.8%. In addition, in experiment [2], the “PDGF Kinase %Inhibition” value stood at 13.8%. For the same compound, the “Met Kinase % Inhibition” value in experiment [3] is given as 57.2%.

In the case of `CNS(=O)(=O)c1ccc2c(c1)C(=Cc1ccccc1OCC(=O)O)C(=O)N2` [10728/D10], the “Biochem EGFR %Inhibition” value in experiment [1] was found to be 18.6%. Besides, the “PDGF Kinase %Inhibition” value in experiment [2] is -3.9%. Moreover, in experiment [3], the “Met Kinase % Inhibition” value turned out to be 30.5%.

Consider `COc1cc(N(C)C)ccc1C=C1C(=O)Nc2ccc(CCCl)cc21` [10728/G05], for which the “Biochem EGFR %Inhibition” value in experiment [1] is recorded as 7.2%. The “PDGF Kinase %Inhibition” value in experiment [2] was -4.4%. The “Met Kinase % Inhibition” value in experiment [3] was 63.1%.

`O=C1Nc2ccc(S(=O)(=O)Nc3ccc(C(F)(F)F)cc3)cc2C1=Cc1cc(C(F)(F)F)ccc1F` [10728/E08]: in experiment [1], the “Biochem EGFR %Inhibition” value is 5.1%. For the same compound, the “PDGF Kinase %Inhibition” value in experiment [2] came out at 29.4%. In experiment [3], the “Met Kinase % Inhibition” value is 46.3%.

Turning to `CNS(=O)(=O)c1ccc2c(c1)C(=Cc1ccccn1)C(=O)N2` [10729/D07], in experiment [1], the “Biochem EGFR %Inhibition” value was 21.4%. In addition, in experiment [2], the “PDGF Kinase %Inhibition” value is -20.0%. Besides, in experiment [3], the “Met Kinase % Inhibition” value is given as 25.5%.

For the compound `COc1cc(C=C2C(=O)Nc3ccc(CCCl)cc32)cc(OC)c1` [10728/G04], the “Biochem EGFR %Inhibition” value in experiment [1] is -8.2%. Further, the “PDGF Kinase %Inhibition” value in experiment [2] was determined as 0.5%. In addition, in experiment [3], the “Met Kinase % Inhibition” value was 20.9%.

Regarding `CCOC(=O)c1cc(C=C2C(=O)Nc3ccc(I)cc32)oc1C` [10718/B06], the “Biochem EGFR %Inhibition” value in experiment [1] was determined as 28.5%. Also, in experiment [3], the “Met Kinase % Inhibition” value came out at 78.4%.

For `O=C1Nc2c(Br)cc(Br)cc2C1=Cc1ccncc1` [10729/A09], the “Biochem EGFR %Inhibition” value in experiment [1] is recorded as 25.7%. The “PDGF Kinase %Inhibition” value in experiment [2] was determined as 11.0%. Also, the “Met Kinase % Inhibition” value in experiment [3] is 80.3%.

Turning to `O=C1Nc2ccc(I)cc2C1=Cc1ccccn1` [10729/B07], the “Biochem EGFR %Inhibition” value in experiment [1] was found to be 69.0%. Moreover, the “PDGF Kinase %Inhibition” value in experiment [2] is -33.2%. For the same compound, the “Met Kinase % Inhibition” value in experiment [3] turned out to be 58.2%.

On to `CNS(=O)(=O)c1ccc2c(c1)C(=Cc1ccc(N3CCCC3)cc1)C(=O)N2` [10729/D10], for which the “Biochem EGFR %Inhibition” value in experiment [1] stood at 11.3%. Also, the “PDGF Kinase %Inhibition” value in experiment [2] is on record as -11.3%. Moreover, the “Met Kinase % Inhibition” value in experiment [3] is 36.1%.

Take `COc1ccc(OC)c(C=C2C(=O)Nc3ccc(S(=O)(=O)Nc4ccc(C(F)(F)F)cc4)cc32)c1` [10728/E02]: the “Biochem EGFR %Inhibition” value in experiment [1] is given as 7.4%. In experiment [2], the “PDGF Kinase %Inhibition” value amounted to 15.2%. Also, the “Met Kinase % Inhibition” value in experiment [3] was found to be 5.4%.

`O=C(O)COc1ccccc1C=C1C(=O)Nc2ccc(CCCl)cc21` [10728/G10]: the “Biochem EGFR %Inhibition” value in experiment [1] was -12.5%. Moreover, the “PDGF Kinase %Inhibition” value in experiment [2] was -0.8%. Further, the “Met Kinase % Inhibition” value in experiment [3] is 27.9%.

Turning to `COc1ccc2ccccc2c1C=C1C(=O)Nc2c(Br)cc(Br)cc21` [10729/A02], the “Biochem EGFR %Inhibition” value in experiment [1] worked out at 10.0%. Further, the “PDGF Kinase %Inhibition” value in experiment [2] was -25.7%. Moreover, the “Met Kinase % Inhibition” value in experiment [3] turned out to be 28.1%.

In the case of `O=C1Nc2c(Br)cc(Br)cc2C1=Cc1ccc(N2CCCC2)cc1` [10729/A10], the “Biochem EGFR %Inhibition” value in experiment [1] is 28.7%. The “PDGF Kinase %Inhibition” value in experiment [2] is reported as -12.8%. In addition, the “Met Kinase % Inhibition” value in experiment [3] is reported as 34.8%.

Regarding `CSc1ccc(C=C2C(=O)Nc3ccc(I)cc32)cc1` [10729/B04], in experiment [1], the “Biochem EGFR %Inhibition” value stood at 63.7%. The “PDGF Kinase %Inhibition” value in experiment [2] is on record as -22.7%. The “Met Kinase % Inhibition” value in experiment [3] was determined as 43.8%.

`COc1cc(N(C)C)ccc1C=C1C(=O)Nc2ccc(S(=O)(=O)Nc3ccc(C(F)(F)F)cc3)cc21` [10728/E05]: in experiment [1], the “Biochem EGFR %Inhibition” value was found to be 7.4%. Moreover, the “PDGF Kinase %Inhibition” value in experiment [2] came out at 5.8%. For the same compound, the “Met Kinase % Inhibition” value in experiment [3] is given as 53.4%.

Take `Cc1c(O)ccc(C=C2C(=O)Nc3c(Br)cc(Br)cc32)c1O` [10718/A09]: in experiment [1], the “Biochem EGFR %Inhibition” value is recorded as -4.1%. Moreover, the “Met Kinase % Inhibition” value in experiment [3] was 67.7%.

Take `O=C1Nc2ccc(CCCl)cc2C1=Cc1cccc(C(F)(F)F)c1F` [10728/G07]: the “Biochem EGFR %Inhibition” value in experiment [1] is on record as -12.3%. Besides, the “PDGF Kinase %Inhibition” value in experiment [2] is on record as -17.3%. The “Met Kinase % Inhibition” value in experiment [3] is reported as 42.4%.

Consider `COc1ccc(C=C2C(=O)Nc3c(Br)cc(Br)cc32)c2ccccc12` [10729/A03], for which the “Biochem EGFR %Inhibition” value in experiment [1] was determined as 27.0%. For the same compound, in experiment [2], the “PDGF Kinase %Inhibition” value is 1.9%. Besides, the “Met Kinase % Inhibition” value in experiment [3] was found to be 27.5%.

As for `COc1cc(C=C2C(=O)Nc3ccc(S(=O)(=O)Nc4ccc(C(F)(F)F)cc4)cc32)cc(OC)c1` [10728/E04], the “Biochem EGFR %Inhibition” value in experiment [1] is 10.1%. Besides, the “PDGF Kinase %Inhibition” value in experiment [2] came out at 23.2%. Moreover, the “Met Kinase % Inhibition” value in experiment [3] was determined as 25.6%.

With `O=C1Nc2ccc(CCCl)cc2C1=Cc1cc(C(F)(F)F)ccc1F` [10728/G08], in experiment [1], the “Biochem EGFR %Inhibition” value is on record as -5.7%. Moreover, the “PDGF Kinase %Inhibition” value in experiment [2] is on record as -11.9%. Further, the “Met Kinase % Inhibition” value in experiment [3] was found to be 42.3%.

Turning to `O=C1Nc2ccc(CCCl)cc2C1=Cc1c(F)cccc1C(F)(F)F` [10728/G09], in experiment [1], the “Biochem EGFR %Inhibition” value was -8.0%. Moreover, the “PDGF Kinase %Inhibition” value in experiment [2] came out at 6.3%. In experiment [3], the “Met Kinase % Inhibition” value is listed as 22.2%.

Consider `Cc1c(Br)ccc2c1C(=CC1C=CCCC1)C(=O)N2` (stereo not shown) [10729/C11], for which the “Biochem EGFR %Inhibition” value in experiment [1] amounted to 35.9%. The “PDGF Kinase %Inhibition” value in experiment [2] was -17.4%. For the same compound, the “Met Kinase % Inhibition” value in experiment [3] stood at 41.3%.

In the case of `Cc1ccsc1C=C1C(=O)Nc2c(Br)cc(Br)cc21` [10729/A05], in experiment [1], the “Biochem EGFR %Inhibition” value is recorded as 23.4%. For the same compound, the “PDGF Kinase %Inhibition” value in experiment [2] is given as -6.8%. In experiment [3], the “Met Kinase % Inhibition” value is 38.8%.

For the compound `CNS(=O)(=O)c1ccc2c(c1)C(=Cc1c(F)cccc1C(F)(F)F)C(=O)N2` [10728/D09], in experiment [1], the “Biochem EGFR %Inhibition” value is listed as -2.9%. Further, the “PDGF Kinase %Inhibition” value in experiment [2] was -3.9%. Moreover, the “Met Kinase % Inhibition” value in experiment [3] was 27.6%.

As for `O=C1Nc2ccc(I)cc2C1=Cc1ccc2ccccc2c1O` [10718/B04], in experiment [1], the “Biochem EGFR %Inhibition” value turned out to be 8.5%. In experiment [3], the “Met Kinase % Inhibition” value turned out to be 63.9%.

`O=C1Nc2c(Br)cc(Br)cc2C1=Cc1ccc([N+](=O)[O-])o1` [10718/A11]: the “Biochem EGFR %Inhibition” value in experiment [1] is listed as 21.2%. Besides, in experiment [3], the “Met Kinase % Inhibition” value is recorded as 58.9%.

For `Cc1ccc(C=C2C(=O)Nc3c(Br)cc(Br)cc32)s1` [10717/A07], in experiment [1], the “Biochem EGFR %Inhibition” value turned out to be 20.2%. Further, the “Met Kinase % Inhibition” value in experiment [3] was 29.2%.

As for `O=C1Nc2c(Br)cc(Br)cc2C1=Cc1ccco1` [10718/A10], the “Biochem EGFR %Inhibition” value in experiment [1] amounted to 41.5%. Besides, the “Met Kinase % Inhibition” value in experiment [3] is 77.9%.

With `CCOC(=O)c1c(C)[nH]c(C=C2C(=O)Nc3ccc(I)cc32)c1C` [10718/B02], the “Biochem EGFR %Inhibition” value in experiment [1] is 24.9%. The “Met Kinase % Inhibition” value in experiment [3] is recorded as 52.9%.

As for `COc1cc(Br)c(O)c(C=C2C(=O)Nc3ccc(I)cc32)c1` [10718/B03], in experiment [1], the “Biochem EGFR %Inhibition” value is recorded as -0.2%. Moreover, the “Met Kinase % Inhibition” value in experiment [3] stood at 77.9%.
